# In paper PMC9452538, “The antimicrobial peptide LI14 combats multidrug-resistant bacterial infections” (Communications Biology, 2022):
# Read-outs that look alike come from different tables or passages of the source. Peptide text beside a SMILES is read from it.
# Tests used:
# MRSA T144 [1] = test: microbe, parasite or virus in culture; format: cell-based, Staphylococcus aureus; conditions: T144
# Method: (§1) An antimicrobial activity study was conducted on all peptides against a panel of laboratory bacteria, including ATCC source and clinical isolates with resistance determinants. According to CLSI2021 guidelines, we tested the minimum inhibitory concentrations (MICs) of peptides using standard broth micro-dilutions. Briefly, bacteria grown to exponential phase were diluted in 1:1000 to MHB, subsequently, equivalent amounts of bacterial suspension (1.5 × 10^6 CFUs/mL) were mixed with different concentrations of peptides in a sterilized 96-well microtiter plate (Corning).
# S. aureus ATCC 29213 = test: microbe, parasite or virus in culture; format: cell-based, Staphylococcus aureus; conditions: ATCC 29213
# Method: as §1
# MRSA 1518 = test: microbe, parasite or virus in culture; format: cell-based, Staphylococcus aureus; conditions: 1518
# Method: as §1
# MRSA 1530 = test: microbe, parasite or virus in culture; format: cell-based, Staphylococcus aureus; conditions: 1530
# Method: as §1
# E. faecalis 1F-1 = test: microbe, parasite or virus in culture; format: cell-based; conditions: 1F-1
# Method: as §1
# [2] = test system: E. faecalis A4 (VRE, VanA); test: microbe, parasite or virus in culture; format: cell-based; conditions: A4 (VRE, VanA)
# Method: as §1
# [3] = test system: S. enteritidis ATCC 13076; test: microbe, parasite or virus in culture; format: cell-based; conditions: ATCC 13076
# Method: as §1
# E. faecium 5F-10 = test: microbe, parasite or virus in culture; format: cell-based, Enterococcus faecium; conditions: 5F-10
# Method: as §1
# E. coli ATCC 25922 = test: microbe, parasite or virus in culture; format: cell-based, Escherichia coli; conditions: ATCC 25922
# Method: as §1
# [4] = test system: E. coli B2 (blaNDM-5 + mcr-1); test: microbe, parasite or virus in culture; format: cell-based, Escherichia coli; conditions: B2 (blaNDM-5 + mcr-1)
# Method: as §1
# E. coli 1F28 (tet(X4)) = test: microbe, parasite or virus in culture; format: cell-based, Escherichia coli; conditions: 1F28 (tet(X4))
# Method: as §1
# E. coli B3-1 (tet(X4)) = test: microbe, parasite or virus in culture; format: cell-based, Escherichia coli; conditions: B3-1 (tet(X4))
# Method: as §1
# E. coli C3 (blaNDM-1) = test: microbe, parasite or virus in culture; format: cell-based, Escherichia coli; conditions: C3 (blaNDM-1)
# Method: as §1
# E. coli CP131 (mcr-3) = test: microbe, parasite or virus in culture; format: cell-based, Escherichia coli; conditions: CP131 (mcr-3)
# Method: as §1
# E. coli G6 (blaNDM-5) = test: microbe, parasite or virus in culture; format: cell-based, Escherichia coli; conditions: G6 (blaNDM-5)
# Method: as §1
# E. coli G92 (mcr-1) = test: microbe, parasite or virus in culture; format: cell-based, Escherichia coli; conditions: G92 (mcr-1)
# Method: as §1
# A. baumannii ATCC 19609 = test: microbe, parasite or virus in culture; format: cell-based, Acinetobacter baumannii; conditions: ATCC 19609
# Method: as §1
# [5] = test system: A. baumannii C222 (tet(X6)); test: microbe, parasite or virus in culture; format: cell-based, Acinetobacter baumannii; conditions: C222 (tet(X6))
# Method: as §1
# P. aeruginosa PA14 = test: microbe, parasite or virus in culture; format: cell-based, Pseudomonas aeruginosa; conditions: PA14
# Method: as §1
# [6] = test system: K. pneumoniae ATCC 700603; test: microbe, parasite or virus in culture; format: cell-based, Klebsiella pneumoniae; conditions: ATCC 700603
# Method: as §1
# [7] = test system: K. pneumoniae D120 (mcr-8); test: microbe, parasite or virus in culture; format: cell-based, Klebsiella pneumoniae; conditions: D120 (mcr-8)
# Method: as §1
# [8] = test system: P. cibarius HNCF44W (blaNDM-1 + tet(X6)); test: organism not typed; format: cell-based
# Method: as §1
# MRSA T144 [9] = format: cell-based, Staphylococcus aureus
# Method: (§2) MRSA T144 and E. coli B2 in the exponential growth phase were incubated with LI14 peptide supplemented with 10 mM Na^+, K^+, Mg^2+, 10% Dulbecco’s modified Eagle medium (DMEM), and 10% fetal bovine serum (FBS) for 16–18 h. The stability of LI14 was evaluated by the change of its antibacterial activity under different conditions.
# (§3) LI14 were preincubated for 1 h at various temperatures (40–121 °C), pH (2–12), and proteases (pepsin, trypsin, and papain, final concentration 1 mg/mL). […] Following the incubation with the proteases, the leftover protease was precipitated with acetonitrile and removed by centrifugation at 3000 × g, followed by a MIC test.
# (§4) Supplementary Table 4 Thermal, pH, salts and protease stability of AMPs against
# (§5) MRSA T144 and E. coli B2 (MIC, μg/mL).
# (§6) Treatment MRSA T144 E. coli B2
# E. coli B2 = format: cell-based, Escherichia coli
# Method: as §2, §3, §4, §5, §6
structure (smiles),measurement,setting,value
CC[C@H](C)[C@H](NC(=O)[C@H](CCCNC(=N)N)NC(=O)[C@H](CS)NC(=O)[C@H](CC(C)C)NC(=O)[C@H](CCCCN)NC(=O)[C@H](CCCCN)NC(=O)[C@H](CC(C)C)NC(=O)[C@@H](NC(=O)[C@H](CCCNC(=N)N)NC(=O)[C@H](CS)NC(=O)[C@H](CC(C)C)NC(=O)[C@H](CCCCN)NC(=O)[C@H](CCCCN)NC(=O)[C@H](CC(C)C)NC(=O)[C@@H](NC(=O)[C@H](CCCNC(=N)N)NC(=O)[C@H](CS)NC(=O)[C@H](CC(C)C)NC(=O)[C@H](CCCCN)NC(=O)[C@H](CCCCN)NC(=O)[C@@H](N)CC(C)C)[C@@H](C)CC)[C@@H](C)CC)C(N)=O [LI21] (H-LKKLCRILKKLCRILKKLCRI-NH2; N-terminus and C-terminus assumed),MIC,MRSA T144 [1],32 µg/mL
same,MIC,S. aureus ATCC 29213,32 µg/mL
same,MIC,MRSA 1518,32 µg/mL
same,MIC,MRSA 1530,32 µg/mL
same,MIC,E. faecalis 1F-1,64 µg/mL
same,MIC,[2],32 µg/mL
same,MIC,[3],32 µg/mL
same,MIC,E. faecium 5F-10,64 µg/mL
same,MIC,E. coli ATCC 25922,64 µg/mL
same,MIC,[4],64 µg/mL
same,MIC,E. coli 1F28 (tet(X4)),32 µg/mL
same,MIC,E. coli B3-1 (tet(X4)),32 µg/mL
same,MIC,E. coli C3 (blaNDM-1),32 µg/mL
same,MIC,E. coli CP131 (mcr-3),16 µg/mL
same,MIC,E. coli G6 (blaNDM-5),16 µg/mL
same,MIC,E. coli G92 (mcr-1),32 µg/mL
same,MIC,A. baumannii ATCC 19609,32 µg/mL
same,MIC,[5],32 µg/mL
same,MIC,P. aeruginosa PA14,32 µg/mL
same,MIC,[6],64 µg/mL
same,MIC,[7],32 µg/mL
same,MIC,[8],32 µg/mL
same,MIC,MRSA T144 [9]; T144,64 µg/mL
same,MIC,"MRSA T144 [9]; T144, 1 h",> 128 µg/mL
same,MIC,E. coli B2; B2,32 µg/mL
same,MIC,"E. coli B2; B2, 1 h",> 128 µg/mL
same,MIC,"E. coli B2; E. coli B2, MgCl2 10 mM",64 µg/mL
